How the values were obtained:
[1] = test system: endogenous melanophore thrombin receptor; test: Pigment aggregation in mock (non-receptor) transfected melanophores; assay type: cell-based, Xenopus laevis; conditions: represents activation of endogenous thrombin receptor
Procedure: (§1) For Gi-coupled responses, cell monolayers plated in 96-well microtiter plates were incubated in the presence of 100 μl/well of 70% L-15 media containing 2% fibroblast-conditioned growth medium, 2 mM glutamine, 100 μg/ml streptomycin, 100 units/ml penicillin and 15 mM HEPES, pH 7.3, for 15 minutes in readings at 600 nm were determined, followed by the addition of ligands. After a 1.5 hour incubation in the dark at room temperature final absorbances were determined. Absorbance readings were converted to transmission values to quantitate pigment dispersion using the following formula: 1−Tf/Ti, where Ti=the initial transmission at 600 nm and Tf=the final transmission at 600 nm.
(§2) The Xenopus melanophore system (Daniolos, et al., 1992. Pigment Cell Res. 3, 38–43) is based on the dispersion and aggregation of intracellular pigment granules in response to changes in intracellular second messenger molecules. Agonist activation of a recombinant Gs- or Gq-coupled receptor expressed heterologously in melanophores leads to pigment dispersion. […] Changes in the melanophore pigmentation show a dose-dependent correlation with the level of specific receptor activation, and can be quantified by the change in absorbance at 600 nm between the nonactivated and agonist-activated cells (Daniolos, et al., 1992. Pigment Cell Res. 3, 38–43). […]

[2] = test system: endogenous Xenopus receptor; test: Melanophore pigment aggregation control, endogenous melatonin response; assay type: cell-based, Xenopus laevis; conditions: stimulating the endogenous Xenopus receptor
Procedure: as §1, §2

Pigment aggregation response in mock (non-receptor) transfected melanophores [1]	Aggregation response (control) [2]	Molecule
detected		thrombin
	positive aggregation response	COc1ccc2[nH]cc(CCNC(C)=O)c2c1 [melatonin]
